This note sets out measurements from patent publication US20250145625A1, “PYRAZOLOPYRIMIDINE DERIVATIVE AND ANTICANCER PHARMACEUTICAL COMPOSITION CONTAINING SAME AS ACTIVE INGREDIENT” (KOREA RESEARCH INSTITUTE OF CHEMICAL TECHNOLOGY, priority 2021, published 2025).

Assay [1] relates to MDA-MB-231 tumor in nude mice. Description: Drug efficacy on nude mice employing MDA-MB-231. The class given is in vivo. Particulars: MDA-MB-231, oral 6 mg/kg daily for 4 weeks. How it is done:
5-Week-old female nude mice were subcutaneously injected with 5×10^6 MDA-MB-231 cells into the flank. When the tumor volume reached approximately 50 mm^3, the mice were divided into groups, each containing 5 animals, which were than orally administered a drug. The dosage of the drug was 6 mg/kg and administered daily for 4 weeks.

Assay [2] has as its system HCT116 colon cancer cell line. The assay is described as follows: Cytotoxicity in TTK-expressed HCT116 cells. The class given is cell-based. Conditions: Homo sapiens, HCT-116, 120 h, 5 days. On the procedure:
To determine the cytotoxicity of a compound represented by Chemical Formula 1 according to the present invention to HCT116 cells, the following test was conducted.
HCT116 colon cancer cell line purchased from ATCC was inoculated into each well of a 96-well plate at a volume of 90 μL containing 2,000 cells. Thereafter, an example compound of the present invention was added to respective wells at concentrations of […], 3 μM, 1 μM, 0.3 μM, 0.1 μM, and 0 μM, and the cells were cultured in a cell incubator at 37° C. for 5 days. After 5 days, the number of cells was measured by CCK8 test method, and the cytotoxicity was determined by calculating the IC50 value for cytotoxicity of each compound.

In assay [3] the test system is MDA-MB-231 triple negative breast cancer cell line. The assay is described as follows: Cytotoxicity in TTK-expressed MDA-MB-231 cells. Conditions: Homo sapiens, MDA-MB-231, 120 h, 5 days. It counts as cell-based. How it is done:
To determine the cytotoxicity of a compound represented by Chemical Formula 1 according to the present invention to MDA-MB-231 cells, the following test was conducted.
MDA-MB-231 triple negative breast cancer cell line purchased from ATCC was inoculated into each well of a 96-well plate at a volume of 90 μL containing 2,000 cells. Thereafter, an example compound of the present invention was added to respective wells at concentrations of 10 μM, 3 μM, 1 μM, 0.3 μM, 0.1 μM, and 0 μM, and the cells were cultured in a cell incubator at 37° C. for 5 days. Five days later, 10 μL of Cyto X solution (manufacturer: LPS Solution) was added to each of the wells, and the absorbance was measured at 450 nm using an Epoch microplate spectrophotometer (manufacturer: BioTek Instruments Inc.) according to the product's user guide. For cytotoxicity, the IC50 value for cytotoxicity of each compound was calculated by quantifying the number of cells using the measured value.

The test system is the same in assay [4]. The assay is described as follows: Cell cycle distribution of co-treatment with paclitaxel in MDA-MB-231 cells. The class given is cell-based. Conditions: co-treated with 0.001 μM paclitaxel. On the procedure: To determine the change in cell cycle distribution when a compound represented by Chemical Formula 1 according to the present invention and paclitaxel were co-applied to MDA-MB-231 cells, the following test was conducted.
MDA-MB-231 triple negative breast cancer cell line purchased from ATCC was inoculated into each well of a 6-well plate at 100,000 cells. Thereafter, paclitaxel was added at concentrations of 0 μM and 0.001 μM and an example compound of the present invention was added at concentrations of 0 μM, 0.03 μM, or 0.1 μM, and the cells were cultured in a cell incubator at 37° C. for 2 days. After 2 days, the cells were fixed with 70% ethanol, and added and into 200 μL of Muse Cell Cycle reagent in a light-shielded state and cultured for 30 minutes. Then, the cell cycle distribution was analyzed using a Muse Cell Analyzer (manufacturer: Merck, Millipore), and the results are shown in FIG. 6.

The target in another assay is IR(h), activated (Homo sapiens (Human), UniProt P06213). The assay is described as follows: Kinase activity inhibitory ability (panel). It counts as biochemical. Particulars: compound at 500 nM.
A further assay deals with ALK(h) (Homo sapiens (Human), UniProt Q9UM73). Description: Kinase activity inhibitory ability (panel). It counts as biochemical. Conditions: compound at 500 nM.
A further assay addresses TTK(h) (Homo sapiens (Human), UniProt P33981). Description: Kinase activity inhibitory ability (panel). The class given is biochemical.
Another assay deals with LTK(h) (Homo sapiens (Human), UniProt P29376). The assay is described as follows: Kinase activity inhibitory ability (panel). It counts as biochemical. Particulars: compound at 500 nM.
Assay [5] addresses recombinant human TTK protein (Homo sapiens (Human), UniProt P33981). Description: Evaluation of TTK activity inhibitory ability (scintillation counting).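 Note: reaction stopped with 0.5% phosphoric acid, spotted on P30 filter, TTK activity counted by scintillation, uninhibited no-compound wells taken as 100% control.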 It counts as biochemical.
Experimental: To determine the ability of a compound represented by Chemical Formula 1 according to the present invention to inhibit TTK activity, the following experiment was conducted.
After that, the reaction was terminated by adding phosphoric acid to a concentration of 0.5%, and 10 of the reaction solution was dropped onto a P30 filter. […] The activity of TTK was measured through scintillation counting. The activity value from the group with no compound was set as 100% of control, and the degree of TTK inhibition by the compound was calculated.
Another assay concerns the target IRR(h) (Homo sapiens (Human), UniProt P14616). Description: Kinase activity inhibitory ability (panel). Conditions: compound at 500 nM. It counts as biochemical.
Where [6] appears, read: TTK inhibitory activity, read-out: IC50.

Structures are written as SMILES. Read-outs that look alike come from different tables or passages of the source.

Sequence of TTK(h) (P33981 whole entry): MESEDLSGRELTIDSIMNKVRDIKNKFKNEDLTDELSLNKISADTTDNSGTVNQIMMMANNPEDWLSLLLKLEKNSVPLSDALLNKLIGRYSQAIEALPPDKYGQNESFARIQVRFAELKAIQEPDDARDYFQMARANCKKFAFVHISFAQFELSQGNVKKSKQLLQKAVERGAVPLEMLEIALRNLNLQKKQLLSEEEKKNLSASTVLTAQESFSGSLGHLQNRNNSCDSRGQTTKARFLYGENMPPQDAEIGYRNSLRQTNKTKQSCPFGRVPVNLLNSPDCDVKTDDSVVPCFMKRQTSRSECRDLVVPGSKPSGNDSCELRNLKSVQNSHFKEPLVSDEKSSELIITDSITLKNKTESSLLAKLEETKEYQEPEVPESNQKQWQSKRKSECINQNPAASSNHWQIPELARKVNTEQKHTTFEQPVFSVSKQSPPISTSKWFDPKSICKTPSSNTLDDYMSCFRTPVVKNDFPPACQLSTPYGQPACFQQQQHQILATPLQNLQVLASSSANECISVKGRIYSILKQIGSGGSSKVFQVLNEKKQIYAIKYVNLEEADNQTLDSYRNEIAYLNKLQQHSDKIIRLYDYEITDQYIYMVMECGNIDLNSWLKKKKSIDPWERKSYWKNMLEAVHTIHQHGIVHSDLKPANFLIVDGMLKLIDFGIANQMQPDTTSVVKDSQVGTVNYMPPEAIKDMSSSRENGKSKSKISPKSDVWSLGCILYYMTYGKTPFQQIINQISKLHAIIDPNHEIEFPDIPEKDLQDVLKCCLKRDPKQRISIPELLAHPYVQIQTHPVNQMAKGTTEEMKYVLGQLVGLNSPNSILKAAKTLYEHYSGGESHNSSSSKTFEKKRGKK
Sequence of recombinant human TTK protein (P33981 whole entry): as above
Sequence of ALK(h) (Q9UM73 19-1620): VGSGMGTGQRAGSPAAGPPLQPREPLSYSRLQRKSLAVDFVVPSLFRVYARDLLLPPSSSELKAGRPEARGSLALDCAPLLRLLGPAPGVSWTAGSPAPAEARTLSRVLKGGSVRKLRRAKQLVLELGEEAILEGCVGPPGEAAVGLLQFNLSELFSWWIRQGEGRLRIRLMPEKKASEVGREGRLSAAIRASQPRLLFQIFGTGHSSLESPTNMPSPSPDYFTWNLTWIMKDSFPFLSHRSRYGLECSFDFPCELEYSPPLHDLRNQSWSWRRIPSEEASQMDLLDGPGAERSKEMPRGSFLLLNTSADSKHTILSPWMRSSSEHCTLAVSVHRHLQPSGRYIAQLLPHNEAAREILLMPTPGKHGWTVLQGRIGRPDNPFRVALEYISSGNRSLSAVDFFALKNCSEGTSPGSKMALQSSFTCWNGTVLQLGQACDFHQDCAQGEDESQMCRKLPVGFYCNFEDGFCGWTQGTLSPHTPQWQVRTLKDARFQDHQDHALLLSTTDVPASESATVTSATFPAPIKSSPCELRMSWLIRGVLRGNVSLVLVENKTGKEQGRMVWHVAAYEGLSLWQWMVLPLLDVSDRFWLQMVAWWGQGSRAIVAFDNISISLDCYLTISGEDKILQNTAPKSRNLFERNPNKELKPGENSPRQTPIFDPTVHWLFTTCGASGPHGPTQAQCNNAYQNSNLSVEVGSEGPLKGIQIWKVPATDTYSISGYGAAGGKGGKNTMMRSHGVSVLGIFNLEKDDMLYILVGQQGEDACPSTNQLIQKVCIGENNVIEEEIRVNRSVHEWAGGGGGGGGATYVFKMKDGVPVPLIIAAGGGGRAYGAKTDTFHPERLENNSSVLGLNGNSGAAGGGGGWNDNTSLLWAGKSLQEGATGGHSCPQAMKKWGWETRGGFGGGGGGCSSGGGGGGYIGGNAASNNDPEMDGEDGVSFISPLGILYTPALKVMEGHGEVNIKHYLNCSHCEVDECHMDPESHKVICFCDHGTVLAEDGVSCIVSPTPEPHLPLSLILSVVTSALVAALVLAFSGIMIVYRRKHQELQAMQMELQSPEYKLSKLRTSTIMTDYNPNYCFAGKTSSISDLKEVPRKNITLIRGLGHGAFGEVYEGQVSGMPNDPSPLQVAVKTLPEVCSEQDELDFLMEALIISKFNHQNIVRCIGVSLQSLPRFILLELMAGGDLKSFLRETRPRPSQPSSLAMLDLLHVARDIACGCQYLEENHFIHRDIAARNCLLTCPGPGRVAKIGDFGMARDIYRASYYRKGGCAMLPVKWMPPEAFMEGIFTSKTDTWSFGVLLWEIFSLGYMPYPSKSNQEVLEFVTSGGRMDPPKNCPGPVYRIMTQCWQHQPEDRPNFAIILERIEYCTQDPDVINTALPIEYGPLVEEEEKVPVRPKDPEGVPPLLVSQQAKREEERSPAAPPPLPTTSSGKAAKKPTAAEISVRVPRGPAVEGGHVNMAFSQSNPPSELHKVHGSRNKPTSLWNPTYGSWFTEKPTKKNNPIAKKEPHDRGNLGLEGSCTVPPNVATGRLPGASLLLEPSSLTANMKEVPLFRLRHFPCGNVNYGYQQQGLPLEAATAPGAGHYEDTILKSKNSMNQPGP
Sequence of LTK(h) (P29376 17-864): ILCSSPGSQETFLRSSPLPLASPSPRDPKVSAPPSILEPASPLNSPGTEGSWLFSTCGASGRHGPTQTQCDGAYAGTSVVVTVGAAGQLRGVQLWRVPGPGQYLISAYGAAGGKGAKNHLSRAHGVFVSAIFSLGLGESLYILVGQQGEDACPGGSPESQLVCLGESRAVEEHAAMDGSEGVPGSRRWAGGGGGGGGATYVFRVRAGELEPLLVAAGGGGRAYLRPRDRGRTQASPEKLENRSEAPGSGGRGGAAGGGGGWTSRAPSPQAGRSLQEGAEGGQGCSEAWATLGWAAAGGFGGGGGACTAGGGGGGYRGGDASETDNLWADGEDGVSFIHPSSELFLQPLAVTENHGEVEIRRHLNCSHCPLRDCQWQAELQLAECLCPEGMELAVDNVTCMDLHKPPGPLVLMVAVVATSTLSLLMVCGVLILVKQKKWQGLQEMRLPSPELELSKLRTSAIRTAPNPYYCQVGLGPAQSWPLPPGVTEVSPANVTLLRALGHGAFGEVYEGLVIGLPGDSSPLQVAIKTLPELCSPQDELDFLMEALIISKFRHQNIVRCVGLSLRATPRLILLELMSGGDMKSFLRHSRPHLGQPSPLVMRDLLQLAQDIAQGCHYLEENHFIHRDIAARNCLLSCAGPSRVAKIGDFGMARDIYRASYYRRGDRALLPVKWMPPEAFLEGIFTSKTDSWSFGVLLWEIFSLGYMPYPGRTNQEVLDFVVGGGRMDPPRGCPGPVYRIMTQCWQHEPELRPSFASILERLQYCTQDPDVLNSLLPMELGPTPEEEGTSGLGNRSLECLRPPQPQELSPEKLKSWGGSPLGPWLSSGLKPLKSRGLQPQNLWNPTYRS
Sequence of IR(h), activated (P06213 28-1382): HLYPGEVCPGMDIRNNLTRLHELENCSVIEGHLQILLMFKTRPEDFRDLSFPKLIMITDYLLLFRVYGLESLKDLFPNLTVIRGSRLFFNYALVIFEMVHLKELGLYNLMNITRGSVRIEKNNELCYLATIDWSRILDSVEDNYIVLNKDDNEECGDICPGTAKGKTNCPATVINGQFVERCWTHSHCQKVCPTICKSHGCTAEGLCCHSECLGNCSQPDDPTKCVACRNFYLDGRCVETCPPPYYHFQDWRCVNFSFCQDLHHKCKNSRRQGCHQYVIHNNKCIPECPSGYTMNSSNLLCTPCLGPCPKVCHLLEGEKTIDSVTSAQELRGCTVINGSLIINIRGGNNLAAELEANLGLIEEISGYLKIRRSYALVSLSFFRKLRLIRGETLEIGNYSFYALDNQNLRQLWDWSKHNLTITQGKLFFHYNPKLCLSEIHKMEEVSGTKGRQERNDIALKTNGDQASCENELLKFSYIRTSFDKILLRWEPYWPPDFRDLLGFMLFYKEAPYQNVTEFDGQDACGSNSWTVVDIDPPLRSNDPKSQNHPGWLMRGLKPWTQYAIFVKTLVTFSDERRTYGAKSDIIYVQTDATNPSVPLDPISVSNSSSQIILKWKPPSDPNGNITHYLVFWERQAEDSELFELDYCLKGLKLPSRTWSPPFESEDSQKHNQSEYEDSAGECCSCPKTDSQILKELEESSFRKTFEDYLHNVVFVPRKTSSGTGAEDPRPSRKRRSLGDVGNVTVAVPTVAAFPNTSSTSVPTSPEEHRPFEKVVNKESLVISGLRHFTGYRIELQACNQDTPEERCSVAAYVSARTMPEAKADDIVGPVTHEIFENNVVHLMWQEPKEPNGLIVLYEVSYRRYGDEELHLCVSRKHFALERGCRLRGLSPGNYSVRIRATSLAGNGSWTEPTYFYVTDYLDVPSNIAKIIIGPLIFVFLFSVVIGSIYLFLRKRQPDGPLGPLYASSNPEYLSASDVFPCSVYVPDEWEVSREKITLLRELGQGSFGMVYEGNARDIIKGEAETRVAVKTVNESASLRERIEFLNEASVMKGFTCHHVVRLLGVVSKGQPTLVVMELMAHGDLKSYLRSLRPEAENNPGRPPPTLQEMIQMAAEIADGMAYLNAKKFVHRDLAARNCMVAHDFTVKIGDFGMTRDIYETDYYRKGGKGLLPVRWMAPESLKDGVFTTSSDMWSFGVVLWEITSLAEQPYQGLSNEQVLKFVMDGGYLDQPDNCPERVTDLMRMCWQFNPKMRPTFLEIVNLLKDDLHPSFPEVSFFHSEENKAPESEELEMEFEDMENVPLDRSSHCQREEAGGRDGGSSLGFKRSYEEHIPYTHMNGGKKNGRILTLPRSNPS

Regarding `Cc1cc(-c2cnn3c(NC[C@H]4C[C@@](C)(O)C4)cc(Oc4cccnc4)nc23)ccc1C(=O)NC1CC1` [Comparative Example 1, CFI-402257, reference compound], the “tumor volume over time” value in [1] was “reduced”. The IC50 in assay [2] and in assay [3] was less than 150 nM throughout. In assay [4], the “change in cell distribution on co-treatment” value is recorded as “enhanced changes in cell distribution”.
For `COc1ccc(Cn2nc(-c3cn[nH]c3)c3c(NC4CCCCC4)nc(Nc4ccc(N5CCOCC5)cc4OC)nc32)cc1` [Compound 8-8, N^4-cyclohexyl-N^6-(2-methoxy-4-morpholinophenyl)-1-(4-methoxybenzyl)-3-(1H-pyrazol-4-yl)-1H-pyrazolo[3,4-d]pyrimidine-4,6-diamine], the activity at 0.5 µM on IR(h), activated is 8%; at ALK(h) it was 2%; on TTK(h) (TTK(h), compound at 500 nM), -7%; at LTK(h), 2%; on IRR(h), 7%. The inhibition at 0.5 µM was more than 90% against IR(h), activated; more than 90% on ALK(h); more than 90% against TTK(h) (TTK(h), compound at 500 nM); more than 90% against LTK(h); more than 90% at IRR(h). Also, the IC50 in [2] was less than 150 nM; in assay [3], less than 150 nM; in assay [5], 0.03 to 0.1 µM. Moreover, the “TTK activity inhibition (in words)” value at TTK(h) (500 nM) is on record as “completely inhibited TTK activity”.
Regarding `COc1cc(N2CCOCC2)ccc1Nc1nc(NC2CCCCC2)c2c(-c3n[nH]c(=O)o3)n[nH]c2n1` [Compound 14-3, 5-(4-(cyclohexylamino)-6-((2-methoxy-4-morpholinophenyl)amino)-1H-pyrazolo[3,4-d]pyrimidin-3-yl)-1,3,4-oxadiazol-2(3H)-one], the results for the IC50 in assay [2], in assay [3] and in assay [5] (setting [6]) were less than 150 nM, 150 to 500 nM and 0.03 to 0.1 µM, respectively.
The like results for `COc1cc(N2CCOCC2)ccc1Nc1nc(NC2CCCCC2)c2c(-c3cnco3)n[nH]c2n1` [Compound 18-1, N^4-cyclohexyl-N^6-(2-methoxy-4-morpholinophenyl)-3-(oxazol-5-yl)-1H-pyrazolo[3,4-d]pyrimidine-4,6-diamine] were, in that order, less than 150 nM, less than 150 nM and less than 0.03 µM.
In the same order, the values of `COc1cc(N2CCOCC2)ccc1Nc1nc(NC2CCCCC2)c2c(-c3cnc[nH]3)n[nH]c2n1` [Compound 18-2, N^4-cyclohexyl-3-(1H-imidazol-5-yl)-N^6-(2-methoxy-4-morpholinophenyl)-1H-pyrazolo[3,4-d]pyrimidine-4,6-diamine] are 500 to 1000 nM, 500 to 1000 nM and 0.03 to 0.1 µM.
The like results for `COc1cc(N2CCOCC2)ccc1Nc1nc(NC2CCCCC2)c2c(-c3cn(C)nn3)n[nH]c2n1` [Compound 21-2, N^4-cyclohexyl-N^6-(2-methoxy-4-morpholinophenyl)-3-(1-methyl-1H-1,2,3-triazol-4-yl)-1H-pyrazolo[3,4-d]pyrimidine-4,6-diamine] were, in that order, less than 150 nM, less than 150 nM and less than 0.03 µM.
Regarding `COc1cc(N2CCOCC2)ccc1Nc1nc(NC2CCOCC2)c2c(-c3cn(C)nn3)n[nH]c2n1` [Compound 21-3, N^6-(2-methoxy-4-morpholinophenyl)-3-(1-methyl-1H-1,2,3-triazol-4-yl)-N^4-(tetrahydro-2H-pyran-4-yl)-1H-pyrazolo[3,4-d]pyrimidine-4,6-diamine], the IC50 was less than 150 nM in [2], 150 to 500 nM in assay [3] and 0.03 to 0.1 µM in [5] (setting [6]).
As to `CC(C)Oc1cc(N2CCOCC2)ccc1Nc1nc(NC2CCCCC2)c2c(-c3cnn(C)c3)n[nH]c2n1` [Compound 26-1, N^4-cyclohexyl-N^6-(2-isopropoxy-4-morpholinophenyl)-3-(1-methyl-1H-pyrazol-4-yl)-1H-pyrazolo[3,4-d]pyrimidine-4,6-diamine], the IC50 in assay [2] fell in the range of 500 to 1000 nM; in assay [3], 150 to 500 nM; in assay [5] (setting [6]), 0.03 to 0.1 µM.
The like results for `COc1cc(N2CCOCC2)ccc1Nc1nc(Nc2ccccc2)c2c(-c3cnn(C)c3)n[nH]c2n1` [Compound 26-2, N^6-(2-methoxy-4-morpholinophenyl)-3-(1-methyl-1H-pyrazol-4-yl)-N^4-phenyl-1H-pyrazolo[3,4-d]pyrimidine-4,6-diamine] were, in that order, more than 1000 nM, more than 1000 nM and less than 0.03 µM.
Consider `COc1cc(N2CCOCC2)ccc1Nc1nc(NC2CCOCC2)c2c(-c3cnco3)n[nH]c2n1` [Compound 33-1, N^6-(2-methoxy-4-morpholinophenyl)-3-(oxazol-5-yl)-N^4-(tetrahydro-2H-pyran-4-yl)-1H-pyrazolo[3,4-d]pyrimidine-4,6-diamine], for which the figures for the half-maximal inhibitory concentration (IC50) in assay [2], in assay [3] and in assay [5] (setting [6]) were less than 150 nM, less than 150 nM and less than 0.03 µM, respectively.
On to `CNC(=O)c1ccc(Nc2nc(NC3CCOCC3)c3c(-c4cnco4)n[nH]c3n2)c(OC)c1` [Compound 33-2, 3-methoxy-N-methyl-4-((3-(oxazol-5-yl)-4-((tetrahydro-2H-pyran-4-yl)amino)-1H-pyrazolo[3,4-d]pyrimidin-6-yl)amino)benzamide], for which the half-inhibitory concentration (IC50) in [2] is 500 to 1000 nM; in assay [3], 150 to 500 nM; in assay [5] (setting [6]) it was less than 0.03 µM.
`COc1cc(-c2nncn2C)ccc1Nc1nc(NC2CCOCC2)c2c(-c3cnco3)n[nH]c2n1` [Compound 33-3, N^6-(2-methoxy-4-(4-methyl-4H-1,2,4-triazol-3-yl)phenyl)-3-(oxazol-5-yl)-N^4-(tetrahydro-2H-pyran-4-yl)-1H-pyrazolo[3,4-d]pyrimidine-4,6-diamine]: the IC50 in [2] was more than 1000 nM; in [3] it was 500 to 1000 nM; in [5] (setting [6]) it was less than 0.03 µM.

The term IC50 denotes the concentration that gives 50% inhibition. What is called inhibition is the change of the read-out against control, counted positive when it falls. Lower therefore signals a weak effect.
